Holding throughout (assay): NCI-60 cell line screen, 48 h
The test system of assay [1] is HCC-2998 colon.
In assay [2] the test system is HCT-15 colon.
Assay [3] relates to HOP-62 NSCLC.
Assay [4] concerns MCF7 breast.
The test system of assay [5] is MDA-N.
Assay [6] relates to NCI-H23 lung.
The test system of assay [7] is NCI-H522 lung.
Assay [8] concerns RPMI-8226 leukemia.
Assay [9] has as its system SF-268 CNS.
The test system of assay [10] is UACC-257 melanoma.

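Method: 48-hour compound exposure of cells in 96-well plates, five concentrations, linear interpolation of endpoints. Definition used: TGI = concentration required for complete inhibition of growth.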

In the case of `COc1ccc(-c2nc(-c3cnccn3)n(C3OC(CO)C(O)C(O)C3O)n2)cc1` (centres undefined), the TGI in assay [1], in assay [2], in assay [3], in assay [4], in [5] and in assay [6] was above 100 µM each time. The TGI in assay [7], in assay [8], in [9] and in [10] was above 100 µM in each case.

As for `CCOC(=O)/C(C#N)=C/N(CC)/N=C/c1ccccc1`, the TGI in assay [1], in [2], in assay [4], in assay [5], in assay [6] and in assay [7] was above 100 µM throughout. The TGI in assay [8], in [9] and in [10] was above 100 µM throughout.

As to `O=C(/C=C/c1ccco1)c1cccc(C(=O)/C=C/c2ccco2)n1`, the TGI in assay [1] was above 100 µM; in assay [2] it was 28.1 µM; in assay [3], above 88.6 µM; in [4], above 100 µM; in [5] it was above 100 µM; in [6] it was 31.8 µM. Further, the TGI in [7] was 19.6 µM; in assay [9], above 38.9 µM; in assay [10] it was above 100 µM.

On to `O=C1CC2(CCNCC2)C(=O)N1N1CCOCC1`, for which the TGI in assay [1], in [2], in assay [3], in [4], in assay [5] and in assay [6] was above 100 µM each time. For the same molecule, the TGI in assay [7], in [8], in [9] and in assay [10] was above 100 µM throughout.

As for `C=C1CC(Cn2cc(Br)c(=O)[nH]c2=O)(c2ccc(-c3ccccc3)cc2)OC1=O` (centres undefined), the TGI in [1] is 3.21 µM; in assay [2], 3.8 µM; in assay [3], 19.3 µM; in [4], 1.75 µM; in assay [5] it was 2.35 µM; in assay [6] it was 3.4 µM. For the same molecule, the TGI in [7] stood at 2.55 µM; in assay [8] it was 0.574 µM; in assay [9], 4.64 µM; in assay [10], 2.53 µM.

For the molecule `C=CCOC(=O)CCCCCCCCCCCCCCCOC(=O)C1=C(CCC[C@@H](C)O[Si](C)(C)C(C)(C)C)NC(=O)N2[C@H](CC3(CC/C=C\[C@H](CC)O[Si](C(C)C)(C(C)C)C(C)C)OCCO3)CC[C@H]12`, the TGI in [1], in assay [2], in assay [3], in [4], in assay [5] and in assay [6] was above 100 µM each time. Also, the TGI in assay [7], in assay [8], in [9] and in assay [10] was above 100 µM throughout.

As for `CCCCCCOP(=O)(OCCCCCC)OC(C(=O)OC)C(F)(F)F` (centres undefined), the TGI in assay [1], in assay [2], in [3], in [4], in assay [5] and in [6] was above 100 µM each time. The TGI in assay [7], in [8], in [9] and in assay [10] was above 100 µM in each case.

On to `NS(=O)(=O)c1cc(S(N)(=O)=O)c(NC(=O)N(c2ccccc2)c2ccccc2)c(Cl)c1Cl`, for which the TGI in [1] is 35.3 µM; in assay [2] it was above 100 µM; in assay [4], above 100 µM; in [5], 88.5 µM; in assay [6], 58.2 µM; in [7], 27.1 µM. Moreover, the values for the TGI in [8], in [9] and in assay [10] were 44.6 µM, above 100 µM and 27.6 µM, respectively.

`CC(=O)O[C@H]1C(=O)N(c2cc3c4ccccc4ccc3c3ccccc23)[C@@H]1c1ccccc1`: the TGI in [1] was 26.8 µM; in assay [2] it was above 100 µM; in assay [3], 32.9 µM; in [4], above 100 µM; in assay [5], above 100 µM; in assay [6] it was 37.3 µM. Besides, the TGI was 6.77 µM in assay [8], above 100 µM in [9] and above 100 µM in assay [10].

For the molecule `CC12CC(c3ccccc3O1)C(C(=O)Nc1cccc(F)c1)C(=O)N2` (centres undefined), the TGI in assay [1] is above 100 µM; in [2] it was above 100 µM; in assay [3] it was above 100 µM; in assay [4] it was above 100 µM; in assay [5], above 100 µM; in [6], 79.3 µM. Besides, the TGI in assay [7], in [8], in assay [9] and in assay [10] was above 100 µM in each case.

As to `O=C(c1ccco1)C1CC(c2ccc3ccccc3c2O)=NN1c1ccc([N+](=O)[O-])cc1[N+](=O)[O-]` (centres undefined), the TGI in assay [1], in assay [2], in assay [3], in assay [4], in assay [5] and in [6] was above 100 µM throughout. The TGI was 47.5 µM in assay [7], above 100 µM in assay [9] and above 100 µM in assay [10].

With `O=C1CSc2nnc(CCCCCCCCc3nnc4n3NC(=O)CS4)n2N1`, the TGI in [1], in [2], in [3], in assay [4], in assay [5] and in [6] was above 100 µM throughout. For the same molecule, the TGI in assay [7] was 75.2 µM; in assay [8] it was above 100 µM; in [9], above 100 µM; in assay [10], above 100 µM.

For the molecule `CC(C)(C)c1c(C(C)(C)C)c(=O)c1=O`, the TGI in assay [1], in assay [2], in assay [3], in assay [4], in assay [5] and in assay [6] was above 100 µM each time. For the same molecule, the TGI in [8], in assay [9] and in assay [10] was above 100 µM each time.

Regarding `O=S1(=O)CCN(c2ccccc2CC(c2c[nH]c3ccccc23)c2c[nH]c3ccccc23)CC1`, the TGI in [1] is 8.09 µM; in [2], 36.3 µM; in assay [3] it was 35.7 µM; in assay [4], above 100 µM; in assay [5], 18.2 µM; in assay [6], 22.6 µM. Moreover, the TGI in [7] worked out at 17.2 µM; in assay [8], 5.01 µM; in assay [9] it was 62.2 µM; in [10] it was 18 µM.

The values are drawn from PubChem BioAssay (NCI).
